Literature values in patent publication US20240261217A1, “NUTRACEUTICAL GUMMY COMPOSITIONS AND METHOD OF PREVENTING ALCOHOL OVERCONSUMPTION SYMPTOMS” (LiQure, Inc., priority 2023, published 2024).
“Also recorded” adds a separate entry of the source.

Columns and labels:
[1] = test system: intoxicated mice; settings: DHM administered to intoxicated mice
[2] = recent studies
[3] = test system: liver; settings: mouse, in vivo
[4] = in vivo
[5] = test system: alcohol dehydrogenase (ADH)
[6] = test system: acetaldehyde dehydrogenase (ALDH)

O=C1c2c(O)cc(O)cc2O[C@H](c2cc(O)c(O)c(O)c2)[C@H]1O [DHM, Dihydromyricetin]
anti-hangover benefits [1]: provide “anti-hangover” benefits | liver-protection properties [1]: possesses liver-protection properties | effect on blood alcohol levels [2]: can reduce blood alcohol levels | effect on alcohol-induced liver damage [3]: can also prevent (and help repair) alcohol-induced liver damage; also recorded: protect the liver from alcohol-induced damage | amount found to mitigate symptoms of over-intoxication from alcohol [4]: 100 to 650 mg | effect on activity of alcohol dehydrogenase (ADH) [5]: enhances the activity of these enzymes | hangover symptoms compared with people who did not take DHM (during a hangover): fewer headaches, less dizziness, less nausea, and less weakness during a hangover | symptoms when taking DHM after drinking alcohol (studies and anecdotal reports, users): fewer headaches, less nausea, less vomiting and less anxiety | effect on activity of acetaldehyde dehydrogenase (ALDH) [6]: enhances the activity of these enzymes
